In patent EP4806890A1, “CRYSTALLINE COMPOUND OR BASIC SALT THEREOF, PREPARATION METHOD THEREFOR, AND USE THEREOF” (Abbisko Therapeutics Co., Ltd., priority 2023, dated 2025):
Entries after “also recorded” stand apart in the source; their conditions may differ. Structures can show the parent of a compound that is named as a salt. Each block holds one compound with its values, some of them ahead of it.

How the values were obtained:
Assay type in all cases: physicochemical
[1] = Stability determination (thermal stability and photostability, HPLC purity, appearance, XRPD); conditions: for XRPD: crystalline form found
Experimental: (§1) The stability and solubility of the crystalline free form of the compound of formula (I) or the basic salt thereof of the present application were determined by HPLC.
An appropriate amount of the sample was placed in a vial and left to stand at 50 °C, 80 °C or 50 °C & 75% RH (open) for 7 days to evaluate thermal stability. An appropriate amount of the sample was placed in a transparent vial, […] evaluation under conditions of overall near-ultraviolet energy of 1.2 * 10^6 Lux·hr and no less than 200 W·hr/m2.

[2] = Solubility determination (equilibrium solubility, 24 hrs stirring at room temperature, HPLC); conditions: for Equilibrium solubility: target concentration 2000 µg/mL, 24 hrs; for pH24 hrs: pH of the filtrate after 24 hrs
Experimental: as §1
The desired amount of the compound was weighed into a glass vial, and the desired amount of a vehicle was added. A stir bar was added to the vial, and the mixture was stirred at room temperature for 24 hrs. After 24 hrs, the appearance of the sample was observed. An appropriate amount of the sample was filtered through a PVDF 0.45 µm filter membrane, and the filtrate was collected. The pH value of the filtrate was determined, and the sample was diluted with MeOH. The diluted sample was injected into an HPLC system to determine the concentration.

[3] = Hygroscopic behavior test by dynamic vapor sorption (DVS)
Description: The experimental method of characterizing the crystalline free form of the compound of formula (I) or the basic salt thereof using dynamic vapor sorption (DVS) is as follows: a small amount of the crystalline sample was placed in a precision sample tray that was compatible with the instrument; after the sample was loaded, the sample tray was placed into the instrument for analysis. In this patent, the instruments used for dynamic vapor sorption were all the DVS Intrinsic plus model, and the following experimental parameters were set: nitrogen was used as the carrier gas, a constant temperature of 25 °C was set, the rate of mass percentage change over a unit of time (dm/dt) = 0.002%/min was used as a criterion for determining if equilibrium is reached, and the program humidity change cycle was set to 50-95-0-95-50% RH; within the range of 0-90% RH, a change of 10% RH was taken as a step, and within the range of 90% RH-95% RH, a change of 5% RH was taken as a step.
In the present invention, the hygroscopic weight increases (hygroscopic weight increase/weight before hygroscopy * 100%) of various crystalline forms under various relative humidity conditions were determined using the dynamic vapor sorption method, and the hygroscopicity of different crystalline compounds was evaluated.

[4] = Aluminum foil light exposure control, 9.2 days
[5] = Brown vial light exposure control, 9.2 days
[6] = Transparent light exposure, 9.2 days
[7] = pH 4.7, 50 mM acetic acid buffer
[8] = pH 6.8, 50 mM phosphoric acid buffer
[9] = Relative humidity 0.0 % at 25 °C
[10] = Relative humidity 10.0 % at 25 °C
[11] = Relative humidity 20.0 % at 25 °C
[12] = Relative humidity 30.0 % at 25 °C
[13] = Relative humidity 40.0 % at 25 °C
[14] = Relative humidity 50.0 % at 25 °C
[15] = Relative humidity 60.0 % at 25 °C
[16] = Relative humidity 70.0 % at 25 °C
[17] = Relative humidity 80.0 % at 25 °C

- Appearance ([1]; 50 °C, 7 days): White powder
- Purity (%) ([1]; 50 °C, 7 days): 99.45%
- Appearance ([1]; 50 °C/75%RH, 7 days): White powder
- Purity (%) ([1]; 50 °C/75%RH, 7 days): 99.46%
- Appearance ([1]; 80 °C, 7 days): White powder
- Purity (%) ([1]; 80 °C, 7 days): 99.34%
- Appearance [1, 4]: White powder
- Purity (%) [1, 4]: 99.51%
- Appearance [1, 5]: White powder
- Purity (%) [1, 5]: 99.50%
- Appearance ([1]; Initial, 0 days): White powder
- Purity (%) ([1]; Initial, 0 days): 99.38%
- Appearance [1, 6]: White powder
- Purity (%) [1, 6]: 99.22%
- XRPD ([1]; 50 °C, 7 days): Crystalline form A of disodium salt
- XRPD ([1]; 50 °C/75%RH, 7 days): Crystalline form A of disodium salt
- XRPD ([1]; 80 °C, 7 days): Crystalline forms A + B of disodium salt
- XRPD [1, 4]: Crystalline form A of disodium salt
- XRPD [1, 5]: Crystalline form A of disodium salt
- XRPD ([1]; Initial, 0 days): Crystalline form A of disodium salt
- XRPD [1, 6]: Crystalline forms A + B of disodium salt
- Equilibrium solubility ([2]; FaSSGF): 22 µg/mL
- Equilibrium solubility ([2]; FaSSIF): 303 µg/mL
- Equilibrium solubility ([2]; FeSSIF): > 2000 µg/mL
- Equilibrium solubility ([2]; Water, room temperature): > 2000 µg/mL
- Equilibrium solubility ([2]; pH 1.2, HCl 100 mM): 1120 µg/mL
- Equilibrium solubility [2, 7]: 25 µg/mL
- Equilibrium solubility [2, 8]: 34 µg/mL
- pH24 hrs ([2]; FaSSGF): 1.73
- pH24 hrs ([2]; FaSSIF): 6.93
- pH24 hrs ([2]; FeSSIF): 7.95
- pH24 hrs ([2]; Water): 9.61
- pH24 hrs ([2]; pH 1.2, HCl 100 mM): 1.01
- pH24 hrs [2, 7]: 4.61
- pH24 hrs [2, 8]: 6.88
- Hygroscopic weight increase (%) [3, 9]: 0.00%
- Hygroscopic weight increase (%) [3, 10]: 2.40%
- Hygroscopic weight increase (%) [3, 11]: 7.45%
- Hygroscopic weight increase (%) [3, 12]: 9.28%
- Hygroscopic weight increase (%) [3, 13]: 10.62%
- Hygroscopic weight increase (%) [3, 14]: 11.64%
- Hygroscopic weight increase (%) [3, 15]: 12.43%
- Hygroscopic weight increase (%) [3, 16]: 13.25%
- Hygroscopic weight increase (%) [3, 17]: 14.59%
- crystalline form changes after DVS testing [3]: no crystalline form changes
- weight increased ([3]; at 80% RH): more than 10%
Compound: Cc1c(NC(=O)c2cc(C3CC3)c(CN3CCCC[C@H]3C(=O)O)cn2)cccc1-c1cccc(NC(=O)c2cc(C3CC3)c(CN3CCCC[C@H]3C(=O)O)cn2)c1C [crystalline form A of disodium salt hydrate] [(2S,2'S)-1,1'-(((((2,2'-dimethyl-[1,1'-biphenyl]-3,3'-diyl)bis(azanediyl))bis(carbonyl))bis(4-cyclopropylpyridine-6,3-diyl))bis(methylene))bis(piperidine-2-carboxylic acid)]
- physical and chemical stability (in words) ([1]; 50 °C, 50 °C/75% RH or brown light exposure): relatively high physical and chemical stability
- crystalline form transformation (in words) ([1]; high temperature and light exposure): underwent crystalline form transformation; also recorded: undergoes crystalline form transformation
- chemical stability (in words) ([1]; various stability testing conditions, incl. high temperature and light exposure): good chemical stability; also recorded: relatively high chemical stability

- Appearance ([1]; 50 °C, 7 days): White powder
- Purity (%) ([1]; 50 °C, 7 days): 98.31%
- Appearance ([1]; 50 °C/75%RH, 7 days): White powder
- Purity (%) ([1]; 50 °C/75%RH, 7 days): 98.43%
- Appearance ([1]; 80 °C, 7 days): White powder
- Purity (%) ([1]; 80 °C, 7 days): 97.90%
- Appearance [1, 4]: White powder
- Purity (%) [1, 4]: 98.51%
- Appearance ([1]; Initial, 0 days): White powder
- Purity (%) ([1]; Initial, 0 days): 98.42%
- Appearance [1, 6]: White powder
- Purity (%) [1, 6]: 97.91%
- XRPD ([1]; 50 °C, 7 days): Free-form crystalline form C
- XRPD ([1]; 50 °C/75%RH, 7 days): Free-form crystalline form C
- XRPD ([1]; 80 °C, 7 days): Free-form crystalline form C
- XRPD [1, 4]: Free-form crystalline form C
- XRPD ([1]; Initial, 0 days): Free-form crystalline form C
- XRPD [1, 6]: Free-form crystalline form C
- Equilibrium solubility ([2]; FaSSGF): 8.9 µg/mL
- Equilibrium solubility ([2]; FaSSIF): 3.21 µg/mL
- Equilibrium solubility ([2]; FeSSIF): 5.34 µg/mL
- Equilibrium solubility ([2]; Water, room temperature): 3.84 µg/mL
- solubility (in words) ([2]; buffer system having a pH of 1.2, compared to the other test conditions): improved solubility
- Equilibrium solubility ([2]; pH 1.2, HCl 100 mM): 18.92 µg/mL
- Equilibrium solubility [2, 7]: 3.3 µg/mL
- Equilibrium solubility [2, 8]: 2.31 µg/mL
- pH24 hrs ([2]; FaSSGF): 1.56
- pH24 hrs ([2]; FaSSIF): 6.41
- pH24 hrs ([2]; FeSSIF): 4.90
- pH24 hrs ([2]; Water): 6.78
- pH24 hrs ([2]; pH 1.2, HCl 100 mM): 1.30
- pH24 hrs [2, 7]: 4.77
- pH24 hrs [2, 8]: 6.89
- Hygroscopic weight increase (%) [3, 9]: 0.00%
- Hygroscopic weight increase (%) [3, 10]: 0.50%
- Hygroscopic weight increase (%) [3, 11]: 0.75%
- Hygroscopic weight increase (%) [3, 12]: 0.80%
- Hygroscopic weight increase (%) [3, 13]: 1.20%
- Hygroscopic weight increase (%) [3, 14]: 1.35%
- Hygroscopic weight increase (%) [3, 15]: 1.50%
- Hygroscopic weight increase (%) [3, 16]: 1.75%
- Hygroscopic weight increase (%) [3, 17]: 2.21%
- Hygroscopic weight increase (%) ([3]; Relative humidity 90.0 % at 25 °C): 2.95%
- crystalline form changes after DVS testing [3]: no crystalline form changes
Compound: Cc1c(NC(=O)c2cc(C3CC3)c(CN3CCCC[C@H]3C(=O)O)cn2)cccc1-c1cccc(NC(=O)c2cc(C3CC3)c(CN3CCCC[C@H]3C(=O)O)cn2)c1C [free-form crystalline form C, (2S,2'S)-1,1'-(((((2,2'-dimethyl-[1,1'-biphenyl]-3,3'-diyl)bis(azanediyl))bis(carbonyl))bis(4-cyclopropylpyridine-6,3-diyl))bis(methylene))bis(piperidine-2-carboxylic acid)]
- physical and chemical stability (in words) ([1]; 50 °C, 50 °C/75% RH (open), 80 °C for 7 days and photostress for 10 days): extremely high physical and chemical stability
- hygroscopicity (in words) ([3]; DVS, 25 °C): moderately hygroscopic; also recorded: moderate hygroscopicity
